This note sets out measurements from patent US20060089378A1 (priority 2004, published 2006).

One assay has as its target T1, Cannabinoid CB2 Receptor (Homo sapiens, UniProt P34972).
T1 construct: expressed in transfected cells
Put plainly: Binding assay for CB2 agonists or inverse agonists (radioligand competition, membranes of transfected SK-N-MC cells). The following applies: test concentration of 0.2 μM, compounds without an IC50 binding value; for inhibition at 0.2 µM: read-out: Cannabinoid CB2 Receptor Binding percent inhibition. On the technique in general: Displacement assays read how much labelled ligand stays bound in the presence of the test substance.

A further assay has as its target T2, Cannabinoid CB1 Receptor (Homo sapiens, UniProt P21554).
T2 construct: expressed in transfected cells
Kind of assay: Binding assay for CB1 agonists or inverse agonists (radioligand competition, membranes of transfected SK-N-MC cells). The following applies: for inhibition at 0.2 µM: test concentration of 0.2 μM, compounds without an IC50 binding value, read-out: Cannabinoid CB1 Receptor Binding percent inhibition.

T1 sequence (P34972 whole entry): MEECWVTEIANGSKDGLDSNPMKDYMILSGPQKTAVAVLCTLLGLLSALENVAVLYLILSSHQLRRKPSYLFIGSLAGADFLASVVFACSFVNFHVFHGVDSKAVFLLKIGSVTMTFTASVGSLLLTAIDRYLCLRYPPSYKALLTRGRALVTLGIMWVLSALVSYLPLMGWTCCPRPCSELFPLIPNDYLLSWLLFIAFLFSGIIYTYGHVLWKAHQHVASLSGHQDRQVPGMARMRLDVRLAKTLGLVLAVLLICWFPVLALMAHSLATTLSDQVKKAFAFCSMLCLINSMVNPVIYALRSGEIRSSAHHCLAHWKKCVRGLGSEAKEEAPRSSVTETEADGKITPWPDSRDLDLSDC
T2 sequence (P21554 whole entry): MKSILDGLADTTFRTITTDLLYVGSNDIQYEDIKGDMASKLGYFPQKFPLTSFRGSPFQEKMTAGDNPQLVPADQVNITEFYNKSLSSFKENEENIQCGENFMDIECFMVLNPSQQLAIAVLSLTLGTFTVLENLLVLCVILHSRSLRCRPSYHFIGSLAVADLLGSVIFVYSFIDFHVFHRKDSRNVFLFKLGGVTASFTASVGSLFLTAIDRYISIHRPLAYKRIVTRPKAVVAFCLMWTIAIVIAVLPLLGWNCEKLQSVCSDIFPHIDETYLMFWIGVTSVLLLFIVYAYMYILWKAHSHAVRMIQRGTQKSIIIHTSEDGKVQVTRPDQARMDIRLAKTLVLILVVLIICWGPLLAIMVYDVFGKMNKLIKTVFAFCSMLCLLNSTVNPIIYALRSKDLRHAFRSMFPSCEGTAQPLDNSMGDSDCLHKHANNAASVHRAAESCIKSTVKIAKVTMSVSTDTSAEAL

By inhibition is commonly meant the drop in the measured response relative to a control, in per cent. As for `COc1ccc(/C=C2\CN(C(=O)OC(C)(C)C)Cc3c(C(=O)NN4CCC(O)CC4)nn(-c4ccc(Cl)cc4Cl)c32)cc1` [Cpd 141, (7E)-1-(2,4-dichloro-phenyl)-3-(4-hydroxy-piperidin-1-ylcarbamoyl)-7-(4-methoxy-benzylidene)-1,4,6,7-tetrahydro-pyrazolo[4,3-c]pyridine-5-carboxylic acid tert-butyl ester], the inhibition at 0.2 µM was determined as 9% on Cannabinoid CB2 Receptor and 6% on Cannabinoid CB1 Receptor. With `COc1ccc(/C=C2\CN(C(=O)OC(C)(C)C)Cc3c(C(=O)N4CCCCC4)nn(-c4ccc(Cl)cc4Cl)c32)cc1` [Cpd 137, (7E)-1-(2,4-dichloro-phenyl)-7-(4-methoxy-benzylidene)-3-(piperidine-1-carbonyl)-1,4,6,7-tetrahydro-pyrazolo[4,3-c]pyridine-5-carboxylic acid tert-butyl ester], the inhibition at 0.2 µM came out at 42% at Cannabinoid CB2 Receptor and 34% on Cannabinoid CB1 Receptor. Regarding `O=C(NN1CC2CCCC2C1)c1nn(-c2ccc(Cl)cc2)c2c1CNC/C2=C\c1ccc(F)cc1` (stereo not drawn) [Cpd 85, (7E)-1-(4-chloro-phenyl)-7-(4-fluoro-benzylidene)-4,5,6,7-tetrahydro-1H-pyrazolo[4,3-c]pyridine-3-carboxylic acid (hexahydro-cyclopenta[c]pyrrol-2-yl)-amide], the inhibition at 0.2 µM at Cannabinoid CB2 Receptor worked out at 11%; at Cannabinoid CB1 Receptor, 45%. One may read the IC50 as the concentration at which inhibition is half-maximal. Take `CC(C)(C)OC(=O)N1CCc2c(c(C(=O)NC3C4CC5CC(C4)CC3C5)nn2C2CCCCC2)C1` (stereo not drawn) [Cpd 130, 3-(adamantan-2-ylcarbamoyl)-1-cyclohexyl-1,4,6,7-tetrahydro-pyrazolo[4,3-c]pyridine-5-carboxylic acid tert-butyl ester]: the IC50 at Cannabinoid CB1 Receptor turned out to be 60 nM.

For `COc1ccc(/C=C2\CNCc3c(C(=O)NN4CCC(O)CC4)nn(-c4ccc(Cl)cc4Cl)c32)cc1` [Cpd 142, (7E)-1-(2,4-dichloro-phenyl)-7-(4-methoxy-benzylidene)-4,5,6,7-tetrahydro-1H-pyrazolo[4,3-c]pyridine-3-carboxylic acid (4-hydroxy-piperidin-1-yl)-amide], the inhibition at 0.2 µM was found to be 0% at Cannabinoid CB2 Receptor and 10% at Cannabinoid CB1 Receptor. On to `CC(NC(=O)c1nn(-c2ccc(Cl)cc2)c2c1CN(C(=O)OC(C)(C)C)C/C2=C\c1ccc(F)cc1)c1ccccn1` (stereo not drawn) [Cpd 73, (7E)-1-(4-chloro-phenyl)-7-(4-fluoro-benzylidene)-3-(1-pyridin-2-yl-ethylcarbamoyl)-1,4,6,7-tetrahydro-pyrazolo[4,3-c]pyridine-5-carboxylic acid tert-butyl ester], for which the inhibition at 0.2 µM on Cannabinoid CB2 Receptor was 6%; on Cannabinoid CB1 Receptor, 50%.

For `CCNC(=O)N1C/C(=C\c2ccc(F)cc2)c2c(c(C(=O)NN3CCCCC3)nn2-c2ccc(Cl)cc2)C1` [Cpd 83, (7E)-1-(4-chloro-phenyl)-7-(4-fluoro-benzylidene)-1,4,6,7-tetrahydro-pyrazolo[4,3-c]pyridine-3,5-dicarboxylic acid 5-ethylamide 3-piperidin-1-ylamide], the inhibition at 0.2 µM turned out to be 19% at Cannabinoid CB2 Receptor and 32% at Cannabinoid CB1 Receptor. In the case of `COc1ccc(/C=C2\CN(S(=O)(=O)N(C)C)Cc3c(C(=O)N[C@H](C)c4ccccc4)nn(-c4ccc(Cl)cc4Cl)c32)cc1` [Cpd 47], the “Cannabinoid CB2 Receptor Binding percent inhibition” value on Cannabinoid CB2 Receptor is 66%. The half-maximal inhibitory concentration (IC50) on Cannabinoid CB1 Receptor came to 2 nM.

Turning to `COC(=O)N1C/C(=C\c2ccc(F)cc2)c2c(c(C(=O)NN3CCC(O)CC3)nn2-c2ccc(Cl)cc2Cl)C1` [Cpd 146, (7E)-1-(2,4-dichloro-phenyl)-7-(4-fluoro-benzylidene)-3-(4-hydroxy-piperidin-1-ylcarbamoyl)-1,4,6,7-tetrahydro-pyrazolo[4,3-c]pyridine-5-carboxylic acid methyl ester], the inhibition at 0.2 µM was found to be 11% on Cannabinoid CB2 Receptor and 40% on Cannabinoid CB1 Receptor. As for `CCCCn1nc(C(=O)NN2CCCCC2)c2c1CCN(C(=O)OC)C2` [Cpd 102, 1-butyl-3-(piperidin-1-ylcarbamoyl)-1,4,6,7-tetrahydro-pyrazolo[4,3-c]pyridine-5-carboxylic acid methyl ester], the inhibition at 0.2 µM at Cannabinoid CB2 Receptor stood at 23%.
